In data set [1] the test system is Puccinia triticina; Synonym: Puccinia recondite f. sp. tritici. Kind of data set: Wheat brown rust (PUCCRT) disease control on wheat seedlings. The format is in vivo. The settings on record: Puccinia triticina; for pest or weed control at 121.5 g/ha: low volume application, 121.5 g/H. The gist of the method: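 Acetone solutions diluted in nine volumes of water with 110 ppm Triton X-100 sprayed to run-off on first-leaf Yuma wheat seedlings (track spray: EC with 0.1% Trycol 5941). Puccinia triticina spores inoculated before or after treatment; overnight dark dew at 22° C., 100% RH, then greenhouse at 24° C. for disease development.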

For data set [2], the system named is Mycosphaerella graminicola; Anamorph: Septoria tritici. The experiment in a line: Leaf blotch of wheat (SEPTTR) disease control on wheat seedlings. The following applies: Zymoseptoria tritici; for pest or weed control at 121.5 g/ha: low volume application, 121.5 g/H. The format is in vivo. The gist of the method:
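Wheat seedlings (Yuma, first leaf emerged) sprayed to run-off with compound in acetone/water with 110 ppm Triton X-100, or track-sprayed as EC with 0.1% Trycol 5941. Septoria tritici spores inoculated before or after treatment. Dew chambers, then 20 °C greenhouse. Percent disease control derived from severity (0–100%) relative to untreated plants.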

Another data set relates to Phakopsora pachyrhizi. Kind of data set: Asian soybean rust (PHAKPA) disease control. The settings on record: topical, high volume. In kind it is in vivo. The method, then:
Technical grades of materials were dissolved in acetone, which were then mixed with nine volumes of water containing 0.011% Tween 20. The fungicide solutions were applied onto soybean seedlings using an automated booth sprayer to run-off. All sprayed plants were allowed to air dry prior to further handling.
Soybean plants (variety Williams 82) were grown in soil-less Metro mix, with one plant per pot. Two weeks old seedlings were used for testing. Plants were inoculated either 3 days prior to or 1 day after fungicide treatments. Plants were incubated for 24 h in a dark dew room at 22° C. and 100% RH then transferred to a growth room at 23° C. for disease to develop. Disease severity was assessed on the sprayed leaves.

For data set [3], the system named is Glomerella lagenarium; Anamorph: Colletotrichum lagenarium. Kind of data set: Cucumber anthracnose (COLLLA) disease control. In kind it is in vivo. The following applies: Colletotrichum orbiculare, 24 h, 1 Day Protectant, high volume, read-out: Disease Control COLLLA 1 DP. As for the experimental part: Technical grades of materials were dissolved in acetone, which were then mixed with nine volumes of water containing 110 ppm Triton X-100. The fungicide solutions were applied onto wheat seedlings using an automated booth sprayer to run-off. All sprayed plants were allowed to air dry prior to further handling. All fungicides were evaluated using the aforementioned method for their activity vs. all target diseases. Wheat leaf blotch and brown rust activity were also evaluated using track spray applications, in which case the fungicides were formulated as EC formulations, containing 0.1% Trycol 5941 in the spray solutions. Cucumber seedlings (variety Bush Pickle) were propagated in soil-less Metro mix, with each pot having one plant, and used in the test when 12 to 14 days old. Test plants were inoculated with an aqueous spore suspension of Colletotrichum lagenarium 24 hr after fungicide treatments. After inoculation the plants were kept in a dew room at 22° C. with 100% relative humidity for 48 hr to permit spores to germinate and infect the leaf. The plants were then transferred to a growth room set at 22° C. for disease to develop. Fungicide formulation, application and disease assessment on the sprayed leaves followed the procedures as described in the Example A.

The mark [4] stands for this setting: 24 h, High volume application, 1 Day Protectant, read-out: PUCCRT 1DP disease control.
Where [5] appears, read: 72 h, High volume application, 3 Day Curative, read-out: PUCCRT 3DC disease control.
Setting [6] is: 24 h, High volume application, 1 Day Protectant, read-out: SEPTTR 1DP disease control.
Setting [7] is: 72 h, High volume application, 3 Day Curative, read-out: SEPTTR 3DC disease control.
Setting [8] is: 24 h, 1 Day Protectant, read-out: Disease Control PHAKPA 1DP.
[9] abbreviates: 72 h, 3 Day Curative, read-out: Disease Control PHAKPA 3DC.

Molecules are shown by their SMILES. Read-outs that look alike come from different tables or passages of the source. Where only a bound is given, the exact number is not on record here.

Turning to `CC(C)CO[C@H]1CCC[C@H](N)C(=O)O[C@@H](C)[C@@H]1OC(=O)C1CC1.Cl`, the melting point is 231 to 235 °C.

`CCCO[C@H]1[C@H](C)OC(=O)[C@@H](N)CCC[C@@H]1OCC(C)C.Cl`: the melting point is 226 to 229 °C.

For the compound `CC(C)CO[C@H]1CCC[C@H](N)C(=O)O[C@@H](C)[C@@H]1OC/C=C/C(F)(F)F.Cl`, the melting point lay in the range of 236 to 240 °C.

Consider `COc1ccc(O[C@H]2CCC[C@H](N)C(=O)O[C@@H](C)[C@@H]2OCC(C)C)cc1.Cl`, for which the melting point was 198 to 200 °C.

Turning to `C[C@@H]1OC(=O)[C@@H](N)CCC[C@H](OC2CCCC2)[C@H]1OC1CCCC1.Cl`, the melting point is 246 to 248 °C.

`CC(C)CO[C@H]1[C@H](C)OC(=O)[C@@H](N)CCC[C@@H]1OCC(C)C.Cl`: the melting point is 188 to 230 °C.

For the compound `COc1ccnc(C(=O)N[C@H]2CCC[C@H](OCC(C)C)[C@@H](OCC(C)C)[C@H](C)OC2=O)c1O` [F21], the melting point lay in the range of 94 to 95 °C. In data set [1] (setting [4]), the pest or weed control at 100 ppm lay within 80 to 100%. Besides, in data set [1] (setting [5]), the pest or weed control at 100 ppm is 80 to 100%. Further, the pest or weed control at 100 ppm in data set [2] (setting [6]) is 0 to 80%. Besides, the pest or weed control at 100 ppm in data set [2] (setting [7]) fell in the range of 0 to 80%.

Consider `COc1ccnc(C(=O)N[C@H]2CCC[C@H](OCC(C)C)[C@@H](OCCCC(F)(F)F)[C@H](C)OC2=O)c1O` [F41], for which the melting point is 108 to 114 °C. Also, the pest or weed control at 100 ppm in data set [1] (setting [4]) was in the range of 80 to 100%. In addition, the pest or weed control at 100 ppm in data set [1] (setting [5]) is 80 to 100%. The pest or weed control at 100 ppm in data set [2] (setting [6]) is 0 to 80%. Besides, in data set [2] (setting [7]), the pest or weed control at 100 ppm was 80 to 100%.

Take `CCCO[C@H]1[C@H](C)OC(=O)[C@@H](NC(=O)c2nccc(OC)c2OC(C)=O)CCC[C@@H]1OCC(C)C` [F47]: the pest or weed control at 25 ppm with Phakopsora pachyrhizi (setting [8]) was less than 0%. The pest or weed control at 100 ppm in data set [1] (setting [4]), in data set [1] (setting [5]), in data set [2] (setting [6]) and in data set [2] (setting [7]) was 80 to 100% throughout.

Turning to `COc1ccnc(C(=O)N[C@H]2CCC[C@H](Oc3ccc(F)cc3)[C@@H](Oc3ccc(F)cc3)[C@H](C)OC2=O)c1O` [F50], the melting point is 89 to 91 °C. For the same compound, the pest or weed control at 100 ppm in data set [1] (setting [4]) lay in the range of 80 to 100%. In addition, the pest or weed control at 100 ppm in data set [1] (setting [5]) lay within 80 to 100%. Further, in data set [2] (setting [6]), the pest or weed control at 100 ppm was 80 to 100%. Further, in data set [2] (setting [7]), the pest or weed control at 100 ppm lay within 0 to 80%.

`COc1ccnc(C(=O)N[C@H]2CCC[C@H](OCC(C)C)[C@@H](Oc3ccc(F)cc3)[C@H](C)OC2=O)c1O` [F55] had a melting point of 65 to 67 °C. In data set [1] (setting [4]), the pest or weed control at 100 ppm lay in the range of 80 to 100%. Also, in data set [1] (setting [5]), the pest or weed control at 100 ppm is 80 to 100%. Also, the pest or weed control at 100 ppm in data set [2] (setting [6]) lay in the range of 80 to 100%. The pest or weed control at 100 ppm in data set [2] (setting [7]) fell in the range of 80 to 100%.

Regarding `COc1ccnc(C(=O)N[C@H]2CCC[C@H](OCC(C)C)[C@@H](OC/C=C/C(F)(F)F)[C@H](C)OC2=O)c1OCOC(C)=O` [F59], the pest or weed control at 25 ppm with Phakopsora pachyrhizi (setting [8]) is 80 to 100%. Moreover, the pest or weed control at 100 ppm in data set [1] (setting [4]), in data set [1] (setting [5]), in data set [2] (setting [6]) and in data set [2] (setting [7]) was 80 to 100% in each case.

In the case of `COc1ccnc(C(=O)N[C@H]2CCC[C@H](OC3CCCC3)[C@@H](OC3CCCC3)[C@H](C)OC2=O)c1OCOC(=O)C(C)C` [F76], the pest or weed control at 25 ppm with Phakopsora pachyrhizi (setting [8]) lay in the range of 80 to 100%. Besides, the pest or weed control at 100 ppm in data set [1] (setting [4]), in data set [1] (setting [5]), in data set [2] (setting [6]) and in data set [2] (setting [7]) was 80 to 100% each time.

Turning to `COc1ccnc(C(=O)N[C@H]2CCC[C@H](OC3CCCC3)[C@@H](OC3CCCC3)[C@H](C)OC2=O)c1OC(C)=O` [F77], the pest or weed control at 25 ppm with Phakopsora pachyrhizi (setting [8]) lay within 80 to 100%. Moreover, the pest or weed control at 100 ppm in data set [1] (setting [4]), in data set [1] (setting [5]), in data set [2] (setting [6]) and in data set [2] (setting [7]) was 80 to 100% in each case.

As for `COc1ccnc(C(=O)N[C@H]2CCC[C@H](OC3CCCC3)[C@@H](Oc3ccccc3)[C@H](C)OC2=O)c1OCOC(C)=O` [F78], the pest or weed control at 25 ppm with Phakopsora pachyrhizi (setting [8]) and with Phakopsora pachyrhizi (setting [9]) was 80 to 100% each time. In addition, the pest or weed control at 100 ppm in data set [3], in data set [1] (setting [4]), in data set [1] (setting [5]), in data set [2] (setting [6]) and in data set [2] (setting [7]) was 80 to 100% throughout.

Turning to `COc1ccnc(C(=O)N[C@H]2CCC[C@H](OC3CCCC3)[C@@H](Oc3ccccc3)[C@H](C)OC2=O)c1OCOC(=O)C(C)C` [F79], in the data set with Phakopsora pachyrhizi (setting [8]), the pest or weed control at 25 ppm is 80 to 100%. Further, the pest or weed control at 100 ppm in data set [1] (setting [4]), in data set [1] (setting [5]), in data set [2] (setting [6]) and in data set [2] (setting [7]) was 80 to 100% each time.

As to `COc1ccnc(C(=O)N[C@H]2CCC[C@H](OC3CCCC3)[C@@H](Oc3ccccc3)[C@H](C)OC2=O)c1OC(C)=O` [F81], the pest or weed control at 25 ppm with Phakopsora pachyrhizi (setting [8]) was in the range of 80 to 100%. For the same compound, the pest or weed control at 100 ppm in data set [1] (setting [4]), in data set [1] (setting [5]), in data set [2] (setting [6]) and in data set [2] (setting [7]) was 80 to 100% in each case.

Turning to `CCCO[C@H]1[C@H](C)OC(=O)[C@@H](NC(=O)c2nccc(OC)c2OCOC(C)=O)CCC[C@@H]1Oc1ccccc1` [F95], the pest or weed control at 25 ppm in the data set with Phakopsora pachyrhizi (setting [8]) and in the data set on Phakopsora pachyrhizi (setting [9]) was 80 to 100% in each case. In addition, the pest or weed control at 100 ppm in data set [1] (setting [4]), in data set [1] (setting [5]), in data set [2] (setting [6]) and in data set [2] (setting [7]) was 80 to 100% in each case.

With `COc1ccnc(C(=O)N[C@H]2CCC[C@H](OCCCc3ccccc3)[C@@H](Oc3ccccc3)[C@H](C)OC2=O)c1OCOC(C)=O` [F133], the pest or weed control at 25 ppm is 80 to 100% in the data set with Phakopsora pachyrhizi (setting [8]) and 0 to 80% with Phakopsora pachyrhizi (setting [9]). Further, the pest or weed control at 100 ppm in data set [1] (setting [4]), in data set [1] (setting [5]), in data set [2] (setting [6]) and in data set [2] (setting [7]) was 80 to 100% throughout.

For the compound `COc1ccnc(C(=O)N[C@H]2CCC[C@H](OC3CCCC3)[C@@H](OC3CCCC3)[C@H](C)OC2=O)c1OCOC(C)=O` [F217], the pest or weed control at 25 ppm in the data set on Phakopsora pachyrhizi (setting [8]) was in the range of 80 to 100%. For the same compound, the pest or weed control at 100 ppm in data set [3], in data set [1] (setting [4]), in data set [1] (setting [5]), in data set [2] (setting [6]) and in data set [2] (setting [7]) was 80 to 100% each time.

Consider `COCCC(=O)Oc1c(OC)ccnc1C(=O)N[C@H]1CCC[C@H](Oc2ccccc2)[C@@H](OC(=O)C2CC2)[C@H](C)OC1=O` [F243], for which the pest or weed control at 25 ppm in the data set on Phakopsora pachyrhizi (setting [8]) is 80 to 100%; with Phakopsora pachyrhizi (setting [9]) it was 0 to 80%. For the same compound, the pest or weed control at 100 ppm in data set [1] (24 h, Wheat Brown Rust, 1 Day Protectant, high volume application, read-out: Disease Control PUCCRT 1 DP 100 ppm) was in the range of 80 to 100%; in data set [1] (72 h, Wheat Brown Rust, 3 Day Curative, high volume application, read-out: Disease Control PUCCRT 3 DC 100 ppm) it was 80 to 100%; in data set [2] (24 h, Wheat Leaf Blotch, 1 Day Protectant, high volume application, read-out: Disease Control SEPTTR 1 DP 100 ppm), 80 to 100%; in data set [2] (72 h, Wheat Leaf Blotch, 3 Day Curative, high volume application, read-out: Disease Control SEPTTR 3 DC 100 ppm) it was 80 to 100%. Also, the pest or weed control at 121.5 g/ha in data set [1] (24 h, Wheat Brown Rust, 1 Day Protectant, read-out: Disease Control PUCCRT 1 DP 121.5 g/H) was 80 to 100%; in data set [1] (72 h, Wheat Brown Rust, 3 Day Curative, read-out: Disease Control PUCCRT 3 DC 121.5 g/H) it was 80 to 100%; in data set [2] (24 h, Wheat Leaf Blotch, 1 Day Protectant, read-out: Disease Control SEPTTR 1 DP 121.5 g/H), 0 to 80%; in data set [2] (72 h, Wheat Leaf Blotch, 3 Day Curative, read-out: Disease Control SEPTTR 3 DC 121.5 g/H), 80 to 100%.

The record behind these values is patent US9681664B2, “Macrocyclic picolinamides as fungicides” (Dow Agrosciences LLC, priority 2012, dated 2017).
